Consider 2 compounds from patent publication US20250388597A1, “BIFUNCTIONAL PHOTOCROSSLINKING PROBES FOR COVALENT CAPTURE OF PROTEIN-NUCLEIC ACID COMPLEXES IN CELLS” (UNIVERSITY OF SOUTHERN CALIFORNIA, priority 2022, published 2025).

Assay type in all cases: cell-based
Experiment [1] relates to MEF2A/DNA complexes in GM12878 cells. The experiment can be described thus: Capture of MEF2A/DNA complexes in GM12878 nuclei, western blot. The settings on record: probe 10 μM + UV365 10 min. Here is the method: FIG. 10A depicts Western blot analysis of presence of complexing of MEF2A with DNA in GM12878 cells treated with UV365 and SPB-PEG3-AAD. For each lane, one million of GM12878 cells were used. The nuclei of the cells were extracted and resuspended in 500 μl PBS, treated with various combination of SPB-PEG3-AAD (10 μM) and/or UV365 (10 min, 30 W, LED, sample distance 3 cm, cooling at 4-degree C.). The samples were then sonicated using covaries (1 min) followed by limited MNase digestion (10 min, 37-degree C.). The lysed and partially digested samples were then mixed with SDS loading dye (2% SDS, boil for 10 min) and run on SDS gel for western blot analyses of MEF2A using Anti-MEF2 antibody (B-4) (SCBT, cat #sc-17785).
We tested the capture of MEF2A/DNA complexes in the GM12878 cell line, a Tier 1 ENCODE cell line with rich genomics data.
In general terms: A western blot detects proteins with antibodies after separation by electrophoresis.

For experiment [2], the target named is T1, FOXP3 in Hela cells (Homo sapiens, UniProt Q9BZS1).
T1 construct: AVI tag; TEV site; expressed in transfected cells; host or cells: Hela
T1 sequence (Q9BZS1 1-431): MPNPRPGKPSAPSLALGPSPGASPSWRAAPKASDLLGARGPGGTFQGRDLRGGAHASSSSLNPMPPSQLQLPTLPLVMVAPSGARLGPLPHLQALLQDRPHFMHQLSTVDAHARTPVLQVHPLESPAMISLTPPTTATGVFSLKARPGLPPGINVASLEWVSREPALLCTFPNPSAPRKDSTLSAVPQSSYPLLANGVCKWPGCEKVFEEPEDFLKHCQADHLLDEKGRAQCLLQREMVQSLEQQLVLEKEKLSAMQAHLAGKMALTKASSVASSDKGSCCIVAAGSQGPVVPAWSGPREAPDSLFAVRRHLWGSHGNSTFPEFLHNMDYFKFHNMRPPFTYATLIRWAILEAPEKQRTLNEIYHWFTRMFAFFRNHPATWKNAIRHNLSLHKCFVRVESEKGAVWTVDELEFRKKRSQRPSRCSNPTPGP
In words: Capture of AVI-TEV-FLAG tagged FOXP3 complexes in transfected Hela cells, western blot. The procedure:
FIG. 10B depicts Western blot analysis of Hela cells transfected with AVI-TEV-FLAG tagged FOXP3. For each lane, approximately one million of cells were used. Lane 1 was fixed with 1% formaldehyde (FA) for 10 min according to standard protocol. Lane 2, untreated control, Lane 3, UV only, lane 4 and lane 6 were treated with SPB-AAD of 1 or 10 μM, respectively but without UV illumination, lane 5 and lane 7 were treated with SPB-AAD of 1 or 10 μM, respectively and illuminated by UV365 (10 min, 30 W, LED, sample distance 3 cm, cooling at 4 degree C.). The cells were lysed using RIPA buffer and further digested by MNase. The sample mixtures were mixed with SDS loading dye (2% SDS, boil for 10 min) and run on SDS gel for western blot analyses of using Anti-FLAG antibody.
We have performed similar experiments with a different system, Hela cells transfected with AVI-TEV-FLAG tagged FOXP3.

The target of experiment [3] is T2, FOXP3 covalently linked to genomic DNA in HEK293T cells (Homo sapiens, UniProt Q9BZS1).
T2 construct: AVI tag (N); TEV site (N); expressed in transfected cells; host or cells: HEK293T
T2 sequence (Q9BZS1 1-431): T1 sequence (Q9BZS1 1-431)
The experiment can be described thus: TRIzol extraction of genomic DNA from BFPX-treated HEK293T cells, Benzonase digestion, anti-FLAG western blot. The settings on record: probe 100 μM + UV (lanes 4 and 5) vs controls (lane 1-3). The procedure:
FIG. 14D depicts for the same BFPX-treated HEK293T cells transfected with AVI-TEV-FLAG-FOXP3 described in (FIG. 14C), TRIzol was used to extract genomic DNA. Briefly, for each aliquot of 0.25 million of cells, lyse and homogenize the sample in 200 μl TRIzol™ Reagent. Incubate for 5 minutes to permit complete dissociation of the nucleoproteins complex. 40 μl of chloroform was then added to the sample to incubate for 3 min. The sample was then centrifuged for 15 minutes at 12,000×g at 4° C. to separate into a lower red phenol/chloroform-interphase layer and a colorless upper aqueous phase. The upper aqueous phase was removed by pipetting. […] Run at 200V for 40 minutes on 4%-15% SDS-PAGE gel and analyzed by western blot (Transfer at 20V (40 mA) overnight, block in 2% BSA in PBS for 45 min, Primary antibody: 1:2000 anti-FLAG; room temperature, 2 hr; Secondary antibody: anti mouse light chain kappa 1:100,000; SuperSignal™ Western Blot Substrate Bundle, Femto).
TRIzol uses strong denaturing reagent (e.g. 4 M guanidine thiocyanate) to lyse the cells and completely dissociate nucleoprotein complexes. The extracted genomic DNA was then digested extensively with Benzonase and analyzed by SDS PAGE gel and western blot. […]

Each structure is given as a SMILES string.

With `C#CCCC1(CCNC(=O)CCOCCOCCOCCC(=O)NCCNC(=O)CCCOc2c3occc3cc3ccc(=O)oc23)N=N1` [SPB-PEG3-AAD], the “capture of MEF2A complexes” value in experiment [1] is recorded as “could capture MEF2 complexes in the nucleus”.
As for `C#CCCC1(CCNC(=O)CCCOc2c3occc3cc3ccc(=O)oc23)N=N1` [SPB-AAD, N-(2-(3-(but-3-yn-1-yl)-3H-diazirin-3-yl)ethyl)-4-((7-oxo-7H-furo[3,2-g]chromen-9-yl)oxy)butanamide], the “dependence of higher molecular weight FOXP3 complex formation on probe concentration” value in experiment [2] (10 μM (lane 7) vs 1 μM (lane 5)) is “dosage dependent”. Moreover, the “capture of higher molecular weight FOXP3 complexes” value in experiment [2] (probe 1 or 10 μM + UV365 10 min (lanes 5 and 7)) was “can capture higher molecular weight FOXP3 complexes”. In addition, the “FOXP3 co-extracted with genomic DNA under strong denaturing conditions” value in experiment [3] is reported as “showed FOXP3 proteins”.
